In publication PMC7363834, “A STING-based biosensor affords broad cyclic dinucleotide detection within single living eukaryotic cells” (Nature Communications, 2020):

Tests used:
STING-CTD (mSTING-CTD) = molecular target: T1, STING-CTD (mSTING-CTD) (Mus musculus, UniProt Q3TBT3); assay: DRaCALA radioactive nucleotide binding assay of STING-CTD; parameters: species or system murine; conditions: excess (500 µM) unlabeled nucleotide
T1 construct: made in house; host or cells: E. coli Rosetta (DE3)pLysS; plasmid pET28-mSTING-CTD, gift from Russell Vance
T1 sequence (Q3TBT3 134-378 limits assumed): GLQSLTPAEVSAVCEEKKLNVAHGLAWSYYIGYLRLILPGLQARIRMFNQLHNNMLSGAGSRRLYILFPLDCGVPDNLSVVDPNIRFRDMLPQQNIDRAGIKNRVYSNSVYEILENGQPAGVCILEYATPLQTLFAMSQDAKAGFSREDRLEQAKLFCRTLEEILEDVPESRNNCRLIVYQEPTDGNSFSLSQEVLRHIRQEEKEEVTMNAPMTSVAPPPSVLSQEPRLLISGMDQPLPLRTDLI

BioSTING = molecular target: T2, BioSTING (Mus musculus, UniProt Q3TBT3); assay: DRaCALA radioactive nucleotide binding assay of BioSTING; parameters: species or system murine; conditions: excess (500 µM) unlabeled nucleotide
T2 construct: FRET pair mTFP and mKO2 at L152 and E335, respectively; His tag (N); made in house; host or cells: E. coli Rosetta (DE3)pLysS
T2 sequence (Q3TBT3 152-335): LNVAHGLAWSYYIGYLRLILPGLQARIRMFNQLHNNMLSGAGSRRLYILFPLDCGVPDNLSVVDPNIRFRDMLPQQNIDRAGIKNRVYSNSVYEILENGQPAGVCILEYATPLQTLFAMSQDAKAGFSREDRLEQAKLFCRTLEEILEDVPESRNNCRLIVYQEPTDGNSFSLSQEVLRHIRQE

| Compound | competition of bound [32P] 2ʼ3ʼ-cGAMP by unlabeled nucleotide (STING-CTD (mSTING-CTD)) | competition of bound [32P] 2ʼ3ʼ-cGAMP by unlabeled nucleotide (BioSTING) |
| --- | --- | --- |
| Nc1nc2c(ncn2[C@@H]2O[C@H](COP(=O)(O)OP(=O)(O)OP(=O)(O)O)[C@@H](O)[C@H]2O)c(=O)[nH]1 [GTP] | not | not |
| Nc1nc2c(ncn2[C@@H]2O[C@@H]3COP(=O)(O)O[C@H]3[C@H]2O)c(=O)[nH]1 [cGMP] | not | not |
| Nc1ncnc2c1ncn2[C@@H]1O[C@H](COP(=O)(O)OP(=O)(O)OP(=O)(O)O)[C@@H](O)[C@H]1O [ATP] | not | not |
